What is called LOAEL is the lowest tested level that showed an adverse finding. For orientation: NOAEL means the highest dose or exposure tested at which no adverse effect was seen.

Series [1] relates to Canidae. The conditions noted are these: oral, M/F, Dog Other.
Series [2] relates to Rattus norvegicus. Conditions: repeat dose other; oral.
The test system of series [3] is Rattus norvegicus. The conditions noted are these: Hershberger; duration: 10 days; oral; gavage; Sprague-Dawley; active + Negative + Antiandrogenic + anti-androgenic + Delayed PPS and decreased AST wt at 375 / bw decreased 6-7% / increased liver wt in….
Series [4] deals with Mus musculus. The conditions noted are these: chronic; inhalation; M/F; B6C3F1; suppurative inflammation of the nose.
In series [5] the test system is Rattus norvegicus. The conditions noted are these: subchronic, duration: 13 weeks.
Series [6] concerns Rattus norvegicus. Conditions: M/F.
In series [7] the test system is Rattus norvegicus. The conditions noted are these: oral, gavage; for NEL / LEL: Crl:CD(SD) BR; for LOAEL / NOAEL: Sprague-Dawley.
In series [8] the test system is Mus musculus. The conditions noted are these: short-term, duration: 28 days, oral, gavage, M, C57BL/6.
Setting [9] is: chronic, duration: 6 months, diet, liver and thyroid effects.
Setting [10] is: chronic, duration: 92 days, M, Blood: Hematocrit (HCT) + Blood: Hemoglobin (HGB) + Blood: Red Cell Distribution Width (RDW) + Blood: Reticulocytes + Blood: Total Protein (….
Setting [11] is: chronic, duration: 92 days, M, Blood: Mean Corpuscular Volume (MCV) + Blood: Red Blood Cell (RBC) + Kidney: Tubular Hypertrophy + Liver: Liver Weight, Relative + Liver: ….
The mark [12] stands for this setting: chronic, duration: 92 days, M, Cardiovascular: Aorta: Aorta Histopathology + Cardiovascular: Heart: Heart Histopathology + Cardiovascular: Heart: Heart Weight, Absolute + ….
[13] abbreviates: chronic, duration: 92 days, M, Hematologic: Blood: Activated Partial Thromboplastin Time (APTT) + Hematologic: Blood: Hematocrit (HCT) + Hematologic: Blood: Hemoglobin (….
Where [14] appears, read: chronic, duration: 93 days, F, Blood: Hematocrit (HCT) + Blood: Hemoglobin (HGB) + Blood: Red Blood Cell (RBC) + Blood: Red Cell Distribution Width (RDW) + Blood: ….
The mark [15] stands for this setting: chronic, duration: 93 days, F, Liver: Liver Weight, Absolute + Liver: Liver Weight, Relative.
[16] abbreviates: chronic, duration: 93 days, F, Cardiovascular: Aorta: Aorta Histopathology + Cardiovascular: Heart: Heart Histopathology + Cardiovascular: Heart: Heart Weight, Absolute + ….
Setting [17] is: chronic, duration: 93 days, F, Hematologic: Blood: Activated Partial Thromboplastin Time (APTT) + Hematologic: Blood: Hematocrit (HCT) + Hematologic: Blood: Hemoglobin (….
Where [18] appears, read: developmental, duration: 14 days, M/F, generation: F1, F1: Pelvis: Litters with Pelvis, Incomplete Ossification + F1: Pelvis: Pelvis, Incomplete Ossification + F1: Rib: Litters with Rib, Wavy + ….
Where [19] appears, read: developmental, duration: 14 days, M/F, generation: F1, F1: Skull: Litters with Skull, Incomplete Ossification + F1: Skull: Skull, Incomplete Ossification.
Where [20] appears, read: developmental, duration: 14 days, M/F, generation: F1, F1: Developmental: Head: Fetal Alterations Count, Head Malformations + F1: Developmental: Head: Litters with Head Malformations + F1: ….
Where [21] appears, read: developmental, duration: 14 days, M/F, generation: F1, F1: Developmental: Rib: Rib, Wavy + F1: Developmental: Skull: Litters with Skull, Incomplete Ossification + F1: Developmental: Sternebra: ….
[22] abbreviates: reproduction developmental, duration: 14 days, F, generation: P0, P0: Fur: Stained Fur + P0: Hair/Fur: Alopecia + P0: Intestine: Soft or Liquid Feces + P0: Whole Body: Hunched Posture + P0: Whole Body: ….
Where [23] appears, read: reproduction developmental, duration: 14 days, F, generation: P0, P0: Developmental: Uterus: Implantation.
Setting [24] is: reproduction developmental, duration: 14 days, F, generation: P0, P0: Developmental: Uterus: Implantation + P0: Developmental: Uterus: Resorptions, Mean/Litter + P0: Developmental: Whole Body: No. Male Pups….
The mark [25] stands for this setting: reproduction developmental, duration: 14 days, F, generation: P0, P0: Developmental: Whole Body: No. Male Pups per No. of Pups Sexed + P0: General Toxicity: Whole Body: Hunched Posture + P0: General ….
Where [26] appears, read: Liver: Catalase (CAT) Activity, Liver + Multi-organ: Interleukin 1 Beta (IL-1b) mRNA + Spleen: Interleukin 6 (IL-6) mRNA.
[27] abbreviates: Liver: Superoxide Dismutase (SOD) Activity + Multi-organ: Catalase (CAT) Activity, Blood + Multi-organ: Interleukin 1 Beta (IL-1b), Serum + ….

Where “and” joins values, the source holds several entries; their conditions need not be identical. Equal values may be shown once.

For the compound `O=C(O)C(Cl)Cl` [Dichloroacetic acid], the lowest-observed-adverse-effect level (LOAEL) in series [1] (subchronic, lesions in testes, cerebrum, cerebellum, and liver) stood at 12.5 mg/kg-day.
Consider `O=[Se](=O)([O-])[O-]` [Selenate], for which, in series [2], the LOAEL amounted to 0.33 mg/kg-day and the NOAEL worked out at 0.2 mg/kg-day.
In series [1] (setting [9]), `CNc1cnn(-c2cccc(C(F)(F)F)c2)c(=O)c1Cl` [Norflurazon] yielded an LEL of 10.2 mg/kg-day and an NOEL of 3.75 mg/kg-day. In addition, in series [3], the LOEL was 375 mg/kg-day and 1000 mg/kg-day; the NOEL is 185 mg/kg-day and 300 mg/kg-day.
Take `[O]=[Cr][O][Cr]=[O]` [Chromium(III) oxide]: in series [2], the NOAEL came to 2740 mg/kg-day.
For `ClC1=C(Cl)C(Cl)(Cl)C(Cl)=C1Cl` [Hexachlorocyclopentadiene], the LOAEL in series [4] worked out at 2.23 mg/m3; in series [6] (chronic, duration: 2 years, inhalation, Fischer 344, respiratory), 0.112 mg/m3. In addition, the NOAEL worked out at 0.56 mg/m3 in series [4]; 1.67 mg/m3 in series [5] (inhalation, intermittent, Nasal cavity: Squamous metaplasia); 7.1 mg/kg-day in series [5] (oral, Forestomach: Lesions); 2.23 mg/m3 in series [6] (chronic, duration: 14 weeks, inhalation, Sprague-Dawley, respiratory); 19 mg/kg-day in series [6] (subchronic, duration: 13 weeks, oral, gavage, Fischer 344, renal).
Consider `OCCC(F)(F)C(F)(F)C(F)(F)C(F)(F)C(F)(F)C(F)(F)C(F)(F)C(F)(F)F` [2-(Perfluorooctyl)ethanol], for which the NEL was 125 mg/kg-day in series [7] (chronic, duration: 92 days, M, Adrenal: Adrenal Gland Histopathology + Adrenal: Adrenal Gland Weight, Absolute + Adrenal: Adrenal Gland Weight, Relative + Aorta: Aorta …); 25 mg/kg-day in series [7] (setting [10]); 5 mg/kg-day in series [7] (setting [11]); 125 mg/kg-day in series [7] (chronic, duration: 93 days, F, Adrenal: Adrenal Gland Histopathology + Adrenal: Adrenal Gland Weight, Absolute + Adrenal: Adrenal Gland Weight, Relative + Aorta: Aorta …); 25 mg/kg-day in series [7] (setting [14]); 5 mg/kg-day in series [7] (setting [15]). Moreover, the NEL in series [7] (developmental, duration: 14 days, M/F, generation: F1, F1: Head: Fetal Alterations Count, Head Malformations + F1: Head: Litters with Head Malformations + F1: Kidney: Litters with Small Renal …) was determined as 500 mg/kg-day; in series [7] (setting [18]) it was 200 mg/kg-day; in series [7] (setting [19]), 50 mg/kg-day; in series [7] (setting [22]) it was 200 mg/kg-day; in series [7] (reproduction developmental, duration: 14 days, F, generation: P0, P0: Ovary: Corpora Lutea + P0: Uterus: Implantation + P0: Uterus: Resorptions, Mean/Litter + P0: Whole Body: Male Pups per Pups Sexed), 500 mg/kg-day; in series [8] (setting [26]) it was 30 mg/kg-day. Further, the NEL was determined as 100 mg/kg-day in series [8] (Liver: Glutathione (GSH), Liver + Multi-organ: Chemokine C-X-C motif Ligand 1 (CXCL-1), Serum + Multi-organ: Interleukin 6 (IL-6) mRNA + …) and 10 mg/kg-day in series [8] (setting [27]). For the same compound, the LEL in series [7] (setting [10]) was determined as 125 mg/kg-day; in series [7] (setting [11]), 25 mg/kg-day; in series [7] (chronic, duration: 92 days, M, Liver: Cholesterol (CHOL), Total, Blood + Thyroid: Colloid Alteration), 1 mg/kg-day; in series [7] (setting [14]), 125 mg/kg-day; in series [7] (setting [15]), 25 mg/kg-day; in series [7] (setting [18]) it was 500 mg/kg-day. For the same compound, the LEL stood at 200 mg/kg-day in series [7] (setting [19]); 500 mg/kg-day in series [7] (setting [22]); 100 mg/kg-day in series [8] (setting [26]); 10 mg/kg-day in series [8] (Liver: Liver Histopathology + Liver: Liver Weight, Absolute + Liver: Liver Weight, Relative + Multi-organ: Chemokine C-X-C motif Ligand 1 (…); 30 mg/kg-day in series [8] (setting [27]). Further, the LOAEL came out at 1 mg/kg-day in series [7] (setting [12]); 1 mg/kg-day in series [7] (chronic, duration: 92 days, M, Endocrine: Adrenal: Adrenal Gland Histopathology + Endocrine: Adrenal: Adrenal Gland Weight, Absolute + Endocrine: Adrenal: Adrenal Gland …); 25 mg/kg-day in series [7] (setting [13]); 1 mg/kg-day in series [7] (setting [16]); 1 mg/kg-day in series [7] (chronic, duration: 93 days, F, Endocrine: Adrenal: Adrenal Gland Histopathology + Endocrine: Adrenal: Adrenal Gland Weight, Absolute + Endocrine: Adrenal: Adrenal Gland …); 25 mg/kg-day in series [7] (setting [17]). Also, the LOAEL in series [7] (setting [20]) turned out to be 200 mg/kg-day; in series [7] (setting [21]) it was 500 mg/kg-day; in series [7] (setting [23]), 500 mg/kg-day; in series [7] (setting [24]), 200 mg/kg-day; in series [7] (setting [25]), 200 mg/kg-day. The NOAEL came out at 125 mg/kg-day in series [7] (setting [12]); 5 mg/kg-day in series [7] (setting [13]); 125 mg/kg-day in series [7] (setting [16]); 5 mg/kg-day in series [7] (setting [17]); 20 mg/kg-day in series [7] (setting [20]); 200 mg/kg-day in series [7] (setting [21]). The NOAEL stood at 200 mg/kg-day in series [7] (setting [23]); 20 mg/kg-day in series [7] (setting [24]); 500 mg/kg-day in series [7] (reproduction developmental, duration: 14 days, F, generation: P0, P0: Developmental: Uterus: Resorptions, Mean/Litter); 20 mg/kg-day in series [7] (setting [25]).
